# pEC50, pIC50: −log10 of the molar value.
# Tests used:
# [1] = molecular target: PIM1 (Homo sapiens, UniProt P11309); assay: KinaseGlo Pim1 ATP depletion assay; type: biochemical
# Method in brief: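 2.5 nM PIM1 preincubated 15 min with compound and 40 μM BAD peptide in 50 mM HEPES pH 7.5, 5 mM MgCl2, 1 mM DTT, 0.05% BSA, 2.5% DMSO. The reaction was started with 20 μM ATP (final) and run to about 50% ATP depletion. Remaining ATP read by KinaseGlo Plus luminescence to give IC50.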
# [2] = molecular target: PIM2 (Homo sapiens, UniProt Q9P1W9); assay: KinaseGlo Pim2 ATP depletion assay; type: biochemical
# PIM2, sequence (Q9P1W9 whole entry): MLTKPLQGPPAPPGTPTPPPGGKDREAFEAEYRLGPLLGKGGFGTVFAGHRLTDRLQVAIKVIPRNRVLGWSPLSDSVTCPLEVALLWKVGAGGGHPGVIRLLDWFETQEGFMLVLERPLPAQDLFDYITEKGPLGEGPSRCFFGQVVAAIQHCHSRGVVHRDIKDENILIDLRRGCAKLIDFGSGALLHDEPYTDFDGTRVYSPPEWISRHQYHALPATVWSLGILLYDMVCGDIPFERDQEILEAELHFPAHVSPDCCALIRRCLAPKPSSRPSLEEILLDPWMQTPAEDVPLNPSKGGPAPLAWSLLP
# Method in brief: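 Luminescent ATP-depletion read-out of PIM2 phosphorylating BAD peptide (RSRHSSYPAGT-OH). Final conditions: 5 nM PIM2, 4 μM ATP, 10 μM peptide, 2.5% DMSO in 50 mM HEPES pH 7.5, 5 mM MgCl2, 1 mM DTT, 0.05% BSA. Enzyme–peptide preincubated 15 min with compound; reaction run to ~50% ATP depletion.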
# [3] = molecular target: PIM3 (Homo sapiens, UniProt Q86V86); assay: KinaseGlo Pim3 ATP depletion assay; type: biochemical
# Method in brief: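 Kinase was preincubated 15 min with BAD peptide in HEPES pH 7.5/MgCl2/DTT/BSA before ATP was added. Final concentrations were 40 μM ATP, 100 μM BAD peptide and 2.5% DMSO, with 5 nM enzyme. The reaction ran to ~50% ATP depletion and remaining ATP was read by KinaseGlo Plus luminescence.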
# [4] = molecular target: GSK3β (Homo sapiens, UniProt P49841); assay: GSK3β ATP depletion assay; type: biochemical; conditions: read-out: GSK3b IC50
# GSK3β, sequence (P49841 whole entry, species assumed): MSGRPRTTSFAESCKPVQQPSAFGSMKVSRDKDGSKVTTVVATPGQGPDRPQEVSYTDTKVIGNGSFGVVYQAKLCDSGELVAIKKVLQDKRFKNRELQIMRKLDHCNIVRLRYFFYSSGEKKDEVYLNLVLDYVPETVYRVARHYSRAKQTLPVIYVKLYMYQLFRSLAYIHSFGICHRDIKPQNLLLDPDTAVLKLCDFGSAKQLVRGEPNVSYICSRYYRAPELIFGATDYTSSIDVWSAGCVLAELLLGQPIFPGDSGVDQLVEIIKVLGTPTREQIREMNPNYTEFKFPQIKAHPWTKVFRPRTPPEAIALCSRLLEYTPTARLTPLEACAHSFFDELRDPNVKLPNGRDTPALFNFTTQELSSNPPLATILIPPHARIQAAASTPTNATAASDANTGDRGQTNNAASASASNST
# Method in brief: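 Human GSK3β (5 nM) preincubated 15 min with 10 μM biotinylated phospho-CREB peptide in pH 7.5 Tris buffer (15 mM MgCl2, 1 mM DTT, 0.1% BSA, 2.5% DMSO). Reaction started with 2 μM ATP and run to about 50% ATP depletion. Remaining ATP measured by KinaseGlo luminescence.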
# [5] = tested on: KMS11 (human myeloma cell line); assay: Cell proliferation assay (CellTiter-Glo), KMS11; type: cell-based; conditions: Homo sapiens, KMS-11; KMS11-Luc cells
# Method in brief: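 KMS11 cells in IMDM with 10% FBS and sodium pyruvate, seeded at 2000 cells/well on assay day. Compound added at 2× to equal volume of cells, incubated 3 days at 37° C. Viability read by CellTiter-Glo luminescence; EC50 derived.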
# PIM1, sequence (P11309 whole entry): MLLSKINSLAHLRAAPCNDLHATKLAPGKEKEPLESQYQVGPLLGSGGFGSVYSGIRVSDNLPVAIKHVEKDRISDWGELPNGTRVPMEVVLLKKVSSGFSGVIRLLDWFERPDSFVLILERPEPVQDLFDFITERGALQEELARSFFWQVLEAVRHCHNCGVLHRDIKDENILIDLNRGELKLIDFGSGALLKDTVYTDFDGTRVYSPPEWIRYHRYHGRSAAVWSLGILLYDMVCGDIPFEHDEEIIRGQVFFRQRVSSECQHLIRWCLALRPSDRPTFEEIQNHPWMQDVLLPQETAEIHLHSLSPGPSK
Compound,pIC50 [1],pIC50 [2],pIC50 [3],pIC50 [4],pEC50 [5]
"O=C(Nc1cnccc1[C@@H]1C[C@H](O)[C@]2(O)CCCC[C@@H]2O1)c1ccc(F)c(-c2c(F)cccc2F)n1 [Example 177, 6-(2,6-difluorophenyl)-N-(4-((2S,4S,4aR,8aS)-4,4a-dihydroxyoctahydro-2H-chromen-2-yl)pyridin-3-yl)-5-fluoropicolinamide]",7.41,6.77,6.79,5.98,5.17
"N#C[C@H]1O[C@@H](c2ccncc2NC(=O)c2ccnc(-c3c(F)cccc3F)n2)C[C@@H](O)[C@@H]1O [Example 149, N-(4-((2R,4R,5S,6R)-6-cyano-4,5-dihydroxytetrahydro-2H-pyran-2-yl)pyridin-3-yl)-2-(2,6-difluorophenyl)pyrimidine-4-carboxamide]",7.10,6.34,6.84,6.68,< 5.00
"CC1C(c2ccncc2NC(=O)c2ccc(F)c(-c3c(F)cccc3F)n2)OC(C)[C@@H](O)C1O (stereo in doubt) [Example 67, 6-(2,6-difluorophenyl)-N-(4-((2R,3S,4R,5S,6R)-4,5-dihydroxy-3,6-dimethyltetrahydro-2H-pyran-2-yl)pyridin-3-yl)-5-fluoropicolinamide]",8.40,6.52,7.66,6.01,< 5.00
"Nc1cc(F)c(-c2ccccc2F)nc1C(=O)Nc1cnccc1C1=CC(=O)[C@H](O)[C@@H](CCl)O1 [Example 151, 3-amino-N-(4-((2S,3R)-2-(chloromethyl)-3-hydroxy-4-oxo-3,4-dihydro-2H-pyran-6-yl)pyridin-3-yl)-5-fluoro-6-(2-fluorophenyl)picolinamide]",8.28,7.07,7.60,5.85,< 5.00
"CC(C)NC(=O)c1ccc(F)c(-c2cccc(C(=O)Nc3cnccc3[C@H]3C[C@@H](O)[C@](C)(O)[C@@H](C)O3)n2)c1 [Example 106, N-(4-((2R,4R,5S,6R)-4,5-dihydroxy-5,6-dimethyltetrahydro-2H-pyran-2-yl)pyridin-3-yl)-6-(2-fluoro-5-(isopropylcarbamoyl)phenyl)picolinamide]",8.15,7.11,7.82,5.45,5.04
"C[C@H]1O[C@@H](c2ccncc2NC(=O)c2csc(-c3c(F)cccc3F)n2)C[C@@H](N)[C@@H]1O [Example 114, N-(4-((2R,4R,5S,6R)-4-amino-5-hydroxy-6-methyltetrahydro-2H-pyran-2-yl)pyridin-3-yl)-2-(2,6-difluorophenyl)thiazole-4-carboxamide]",8.40,6.84,7.85,6.19,5.82
"C[C@H]1O[C@@H](c2ccncc2NC(=O)c2ccc(F)c(-c3ccccc3F)n2)C[C@@H](O)[C@]1(C)O [Example 93, N-(4-((2R,4R,5S,6R)-4,5-dihydroxy-5,6-dimethyltetrahydro-2H-pyran-2-yl)pyridin-3-yl)-5-fluoro-6-(2-fluorophenyl)picolinamide]",9.00,7.23,8.30,6.93,< 5.00
"O=C1CC[C@H]2O[C@@H](c3ccncc3NC(=O)c3ccc(F)c(-c4c(F)cccc4F)n3)C[C@@H](O)[C@H]2N1 [Example 198, 6-(2,6-difluorophenyl)-5-fluoro-N-(4-((2R,4R,4aR,8aR)-4-hydroxy-6-oxooctahydro-2H-pyrano[3,2-b]pyridin-2-yl)pyridin-3-yl)picolinamide]",8.59,7.27,7.72,7.62,< 5.00
"O=C(Nc1cnccc1[C@H]1C[C@@H](O)CC2(CC2)O1)c1ccc(F)c(-c2c(F)cccc2F)n1 [Example 59, 6-(2,6-difluorophenyl)-5-fluoro-N-(4-((5R,7R)-7-hydroxy-4-oxaspiro[2.5]octan-5-yl)pyridin-3-yl)picolinamide]",8.22,6.79,7.85,6.12,< 5.00
"O=C(Nc1cnccc1[C@@H]1C[C@H](O)[C@@H](O)[C@H](C2CC2)O1)c1ccc(F)c(-c2c(F)cccc2F)n1 [Example 209, N-(4-((2S,4S,5R,6S)-6-cyclopropyl-4,5-dihydroxytetrahydro-2H-pyran-2-yl)pyridin-3-yl)-6-(2,6-difluorophenyl)-5-fluoropicolinamide]",8.49,8.10,8.38,5.97,5.02
"O=C(Nc1cnccc1[C@H]1C[C@@H](O)[C@H](O)[C@@H](C2CC2)O1)c1cccc(-c2c(F)cccc2F)n1 [Example 208, N-(4-((2R,4R,5S,6R)-6-cyclopropyl-4,5-dihydroxytetrahydro-2H-pyran-2-yl)pyridin-3-yl)-6-(2,6-difluorophenyl)picolinamide]",8.34,8.06,8.18,6.10,< 5.00
"O=C(Nc1cnccc1C1=C[C@@H](O)[C@H](O)[C@@H](CCl)O1)c1ccnc(-c2c(F)cccc2F)n1 [Example 28, N-(4-((2S,3S,4R)-2-(chloromethyl)-3,4-dihydroxy-3,4-dihydro-2H-pyran-6-yl)pyridin-3-yl)-2-(2,6-difluorophenyl)pyrimidine-4-carboxamide]",8.70,8.15,8.52,7.66,6.09
"O=C(Nc1cnccc1[C@H]1OCC[C@@H](CO)O1)c1ccc(F)c(-c2c(F)cccc2F)n1 [Example 103, 6-(2,6-difluorophenyl)-5-fluoro-N-(4-((2S,4S)-4-(hydroxymethyl)-1,3-dioxan-2-yl)pyridin-3-yl)picolinamide]",7.96,6.30,7.57,5.62,< 5.00
"CC1(C)O[C@@H](c2ccncc2NC(=O)c2ccc(F)c(-c3c(F)cccc3F)n2)C[C@H](O)[C@@H]1O [Example 89, 6-(2,6-difluorophenyl)-N-(4-((2R,4S,5S)-4,5-dihydroxy-6,6-dimethyltetrahydro-2H-pyran-2-yl)pyridin-3-yl)-5-fluoropicolinamide]",9.00,8.22,8.70,7.06,5.62
"O=C(Nc1cnccc1[C@H]1C[C@@H](O)[C@H](O)[C@@H](C2CC2)O1)c1ccc(F)c(-c2c(F)cccc2F)n1 [Example 211, N-(4-((2R,4R,5S,6R)-6-cyclopropyl-4,5-dihydroxytetrahydro-2H-pyran-2-yl)pyridin-3-yl)-6-(2,6-difluorophenyl)-5-fluoropicolinamide]",9.00,8.51,8.66,6.20,5.57
"NC(=O)[C@H]1O[C@@H](c2ccncc2NC(=O)c2ccc(F)c(-c3c(F)cccc3F)n2)C[C@@H](O)[C@@H]1O [Example 141, N-(4-((2R,4R,5S,6S)-6-carbamoyl-4,5-dihydroxytetrahydro-2H-pyran-2-yl)pyridin-3-yl)-6-(2,6-difluorophenyl)-5-fluoropicolinamide]",6.74,6.14,7.03,5.47,< 5.00
"CC[C@@H]1O[C@H](c2ccncc2NC(=O)c2nc(-c3c(F)cccc3F)c(F)cc2N)C[C@H](O)[C@@]1(C)O [Example 165, 3-amino-6-(2,6-difluorophenyl)-N-(4-((2S,4S,5R,6S)-6-ethyl-4,5-dihydroxy-5-methyltetrahydro-2H-pyran-2-yl)pyridin-3-yl)-5-fluoropicolinamide]",8.05,7.17,7.44,5.57,< 5.00
"O=C(Nc1cnccc1C1OCCCO1)c1csc(-c2c(F)cccc2F)n1 [Example 117, N-(4-(1,3-dioxan-2-yl)pyridin-3-yl)-2-(2,6-difluorophenyl)thiazole-4-carboxamide]",8.10,5.61,7.40,5.56,5.02
"C=C[C@H]1OC(c2ccncc2NC(=O)c2nc(-c3ccccc3F)c(F)cc2N)=C[C@@H](O)[C@@H]1O [Example 24, 3-amino-N-(4-((2R,3S,4R)-3,4-dihydroxy-2-vinyl-3,4-dihydro-2H-pyran-6-yl)pyridin-3-yl)-5-fluoro-6-(2-fluorophenyl)picolinamide]",9.00,8.15,8.40,6.75,5.13
